Values joined by “and” are separate entries in the source; they are usually repeats but may differ in a detail not shown here. Identical values can stand only once. Like-named read-outs stand apart in the source and are kept apart here.
Assays:
[1] = system: Neospora caninum; conditions: dogs; treatment with sulfadiazine and clindamycin together; cited from earlier work
[2] = system: Neospora caninum; conditions: experimentally infected mice, administered via the drinking water, cited from earlier work
[3] = system: Neospora caninum; experiment: Testing substances on infected Neospora caninum cell cultures (VERO cell monolayer, microscopical assessment); assay type: cell-based; design: key: 0 = no effect; 1 = some effect; 2 = full action; T = cytotoxic; conditions: 4 days after beginning of treatment, 5 days post-infection
Method: Neospora caninum is an obligatory intracellular parasite. VERO cells (African green monkey kidney cells, ATCC No.: CCL 81 Vero) were used as an aid to cause the parasite to reproduce under conditions capable of standardization and definition. Vero cells were grown in the following medium: 87% […] (ICN, 12-602-54) 10% FCS (fetal calf serum, ICN, 29-101-49) 1% 200 mM L-glutamine (ICN, 15-801-13) 1% sodium bicarbonate (ICN, 16-883-49) 1% penicillin/streptomycin (ICN, 16-700-49). Noninfected cultures were maintained and passaged in 25 cm^2 (Falcon, B 769031) and 75 cm^2 (Falcon, B 769051) tissue culture flasks. Vero cells were grown at 37° C. in a 5% CO2 atmosphere in a CO2 incubator (Heraeus) until a cell monolayer was obtained.
The following Neospora caninum isolates were used for the infection of cell cultures: NC-1 (canine isolate DUBEY (1988) and NC Swe B-1/9th passage (bovine isolate; National Veterinary Institute Uppsala, Sweden). The infection materials used were infected cell cultures from the nitrogen storage (see above) or purified tachyzoites of infected cultures (see below).
Neospora caninum was isolated from infected VERO or ED monolayers under sterile conditions. First, infected cell cultures were detached from the flask bottom using a spatula (Tec No Mara, 3010) and, using a 23-gauge cannula (Luer 23 Gx1, 0.6×25 mm) drawn into a 10 ml disposable syringe. During this procedure, host cells and tissue cysts contained therein were destroyed mechanically. The cell suspension was subsequently centrifuged for 7 minutes at 1 500 rpm (Varifuge 3.0, Heraeus), the supernatant was discarded, and the sample pellet was resuspended in precisely 2.5 ml of physiological phosphate buffer (PBS: 1 mM PO4, 12 mM NaCl, 0.87 mM KCL, pH 7.4). The next isolation step was performed using a Sephadex column (PD-10™/Sephadex G-25 M, Pharmacia Biotech, 17-0851). The column was first equilibrated with 25 ml of PBS, the sample volume was applied in 2.5 ml of PBS, and elution was then effected with 5 ml of PBS. […]

[4] = system: Neospora caninum; experiment: Anti-N. caninum total IgG in the serum by ELISA, prophylactically treated infected mice; assay type: in vivo
Method: (§1) Female Wt C57BL/6-mice, age at the time of treatment: 7½ weeks.
(§2) Neospora caninum tachyzoites were passaged through VERO cells, and isolated by column chromatography, and aliquots with concentrations of 2×10^6 parasites/100 μl were prepared in sterile PBS.
(§3) Pure toltrazuril active compound was made up as a stock solution with 50 mg/10 ml H2O+100 μl Cremophor. 0.5 mg of pure active compound were present Der application in 0.1 ml of this solution. In a mouse of 20 g, this corresponds to a use concentration of 25 mg/kg. The substances were administered perorally by gavage on 6 successive days, which corresponds to a total uptake of […].
(§4) Toltrazuril 2.5% formulated solution (100 ml solution contain: 2.50 g toltrazuril, 30.00 g triethanolamine, 80.70 g polyethylene glycol; the components are simply mixed): 6.25 ml of the 2.5% solution were diluted in 250 ml of water and administered to the mice on 6 successive days via the drinking water.
(§5) Four hours after the start of the prophylactic treatment, each mouse was infected with 2×10^6 parasite stages/100 μl sterile PBS.
(§6) 14 days post-infection, the test mice were sacrificed using CO2. They were numbered randomly to maintain a random sequence during evaluation (blind evaluation). To obtain serum, blood was taken from the myocardium. The brain was dissected carefully, and one half was stored at −80° C. for the PCR analysis. The remainder was fixed in 4% paraformaldehyde/PBS for immunohistological studies (IFAT).
Anti-N. caninum total immunoglobulin G (IgG) was determined by ELISA following the method of Eperon et al., 1999, Parasite Immunology 21:225-236. Treated groups were compared with an uninfected and an infected control group. The positive control mouse was inoculated with a crude extract of N. caninum tachyzoites and subsequently infected with 10^6 N. caninum stages. The parasite-specific IgG values were particularly high in this mouse.

[5] = system: Neospora caninum; experiment: Neospora caninum-specific PCR on brain DNA of infected mice; assay type: in vivo; conditions: prophylactic treatment, pure active compound 25 mg/kg/day p.o.
Method: as §1, §2, §3, §4, §5
as §6, with “The remainder was fixed in 4% paraformaldehyde/PBS for immunohistological studies (IFAT).” left out

[6] = system: Neospora caninum; experiment: Immunofluorescence test (IFAT) on brain sections of infected mice; assay type: in vivo; design: key: Score (−)=no tachyzoites; Score (+)=less than 10 tachyzoites; Score (++)=between 10 and 200 tachyzoites; Score (+++)=more than 200 parasites; conditions: brain sections of individual mice; 25 mg/kg/day p.o. on 6 successive days; day 14 p.i.
Method: as §1, §2, §3, §4, §5
14 days post-infection, the test mice were sacrificed using CO2. They were numbered randomly to maintain a random sequence during evaluation (blind evaluation). […]
The entire sections were studied for the assessment. Any stages of the parasite present were counted, and the following scores were used: […]

Structure (SMILES) | success of treatment [1] | effectiveness of treatment ([2]; later start of the treatment) | effectiveness of treatment ([2]; start prior to infection, clinical symptoms prevented without parasitological recovery) | Efficacy against Neospora caninum in VERO cells (assessment of monolayer) ([3]; 10 ppm) | Efficacy against Neospora caninum in VERO cells (assessment of monolayer) ([3]; 25 ppm) | Efficacy against Neospora caninum in VERO cells (assessment of monolayer) ([3]; 50 ppm) | OD mean (anti Neospora IgG in the serum) ([4]; group mean, 7 mice, 25 mg/kg/day p.o. on 6 successive days, day 14 p.i.) | OD (anti Neospora IgG in the serum) ([4]; individual C57BL/6 mice, 25 mg/kg/day p.o. on 6 successive days from 4 h before infection, day 14 p.i., 25 mg/kg/day) | concentration of Neospora caninum-specific IgG antibodies compared with infected and untreated control groups ([4]; mice, pure active compound 25 mg/kg/day p.o.) | mice PCR-negative in the group [5] | IFAT [6]
Nc1ccc(S(=O)(=O)Nc2ncccn2)cc1 [sulfadiazine] | only has a chance of success when it starts very early | without success | only effective when the treatment was started prophylactically |  |  |  |  |  |  |  | 
Cc1cc(-n2c(=O)[nH]c(=O)n(C)c2=O)ccc1Oc1ccc(SC(F)(F)F)cc1 [Toltrazuril, toltrazuril] |  |  |  | 1 | 2 | 2 | 0.1689 | 0.338 and 0.271 and 0.056 and 0.066 and 0.18 and 0.103 and 0.168 | reduced concentration | 4/7 | −

Reference: patent US9399037B2, “Triazinone compounds for treating diseases resulting from infestation with parasitic protozoans” (Bayer Intellectual Property GmbH, priority 1999, dated 2016)
